IC50 data for 13 compounds are collected here from article PMC10142505, “Synthesis, Evaluation of Enzyme Inhibition and Redox Properties of Potential Dual COX-2 and 5-LOX Inhibitors” (Pharmaceuticals, 2023).

One test addresses T1, 5-LOX enzyme (Homo sapiens, UniProt P09917).
T1 construct: purchased MyBioSource MBS846911
T1 sequence (P09917 1-674): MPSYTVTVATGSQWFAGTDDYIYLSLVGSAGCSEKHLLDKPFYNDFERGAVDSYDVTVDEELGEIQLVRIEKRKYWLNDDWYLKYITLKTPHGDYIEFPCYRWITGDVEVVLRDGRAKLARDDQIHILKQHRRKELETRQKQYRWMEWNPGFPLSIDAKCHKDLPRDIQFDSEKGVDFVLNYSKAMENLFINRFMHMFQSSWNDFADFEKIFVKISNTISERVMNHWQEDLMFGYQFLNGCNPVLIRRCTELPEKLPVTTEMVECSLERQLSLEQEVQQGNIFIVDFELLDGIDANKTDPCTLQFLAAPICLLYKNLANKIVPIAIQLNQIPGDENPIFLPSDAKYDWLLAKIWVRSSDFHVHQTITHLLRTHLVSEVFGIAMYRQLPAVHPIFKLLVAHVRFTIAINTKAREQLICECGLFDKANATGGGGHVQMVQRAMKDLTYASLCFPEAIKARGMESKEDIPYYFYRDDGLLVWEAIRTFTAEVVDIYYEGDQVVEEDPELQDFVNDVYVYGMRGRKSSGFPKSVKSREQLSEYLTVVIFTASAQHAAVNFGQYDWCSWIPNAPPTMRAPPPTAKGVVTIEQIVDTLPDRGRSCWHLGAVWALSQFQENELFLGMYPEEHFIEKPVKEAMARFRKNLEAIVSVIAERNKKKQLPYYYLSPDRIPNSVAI
The experiment in a line: Fluorometric 5-LOX inhibitor screening kit. The format is biochemical. Particulars: IC50 ± standard error. As for the experimental part: The 5-LOX inhibitory activates of synthesized compounds were tested using a fluorometric 5-LOX inhibitor screening kit (MyBioSource, San Diego, CA, USA; Catalog Number: MBS846911). This assay is based on the fluorometric detection of the intermediate generated by the 5-LOX enzyme. The experiment was conducted according to the manufacturer’s instructions. […] The tested compounds were dissolved in DMSO. Test solutions were added to corresponding wells at an amount of 2 µL out of the final 100 µL reaction volume per well. […] The volume was adjusted to 40 µL in each well by adding 38 µL of LOX Assay Buffer. The Reaction Mix (containing LOX Assay Buffer, LOX Probe and 5-LOX Enzyme) was prepared according to the instructions and 40 µL of the Reaction Mix was added into each well. The plate was incubated at room temperature for 10 min before adding the substrate diluted in the LOX Assay Buffer (1:2500 dilution factor). The final substrate solution was added at an amount of 20 µL into each well using a multi-channel pipette to initiate all the reactions at the same time. […] The EC, SC, IC and tested compounds at all concentrations were analyzed in triplicates. Two points (T1 and T2) in the linear range of the plot were chosen and corresponding fluorescence values (RFU1 and RFU2) were obtained. The slope for all samples was calculated by dividing ΔRFU (RFU2-RFU1) by the time Δt (T2−T1). The percentage of inhibition was calculated according to the equation mentioned in Section 3.3.1.
(§1) Fluorescence measurements were performed on a BioTek Synergy LX multi-mode reader (Winooski, VT, USA).

Test [1] concerns the target T2, COX-2 human recombinant enzyme (Homo sapiens, UniProt P35354).
T2 construct: purchased Abcam ab283401
T2 sequence (P35354 18-604): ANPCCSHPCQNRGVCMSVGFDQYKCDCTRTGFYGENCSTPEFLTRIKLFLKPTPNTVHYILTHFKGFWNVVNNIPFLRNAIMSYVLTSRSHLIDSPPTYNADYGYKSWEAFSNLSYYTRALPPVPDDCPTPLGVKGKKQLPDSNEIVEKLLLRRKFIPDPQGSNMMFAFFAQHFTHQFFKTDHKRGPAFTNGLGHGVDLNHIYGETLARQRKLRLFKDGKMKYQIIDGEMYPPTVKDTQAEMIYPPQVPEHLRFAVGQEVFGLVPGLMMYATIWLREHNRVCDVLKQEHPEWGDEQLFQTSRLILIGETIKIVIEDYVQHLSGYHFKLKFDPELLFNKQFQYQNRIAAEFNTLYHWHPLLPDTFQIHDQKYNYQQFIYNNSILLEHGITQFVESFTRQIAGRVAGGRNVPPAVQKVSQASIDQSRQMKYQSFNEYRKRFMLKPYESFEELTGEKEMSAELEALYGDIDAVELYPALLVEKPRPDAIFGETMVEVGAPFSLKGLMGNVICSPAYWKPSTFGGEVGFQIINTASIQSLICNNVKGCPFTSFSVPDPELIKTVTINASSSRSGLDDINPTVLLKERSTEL
The experiment in a line: Fluorometric COX-2 inhibitor screening kit. The format is biochemical. The note with it: IC50 ± standard error. The protocol: The COX-1 and COX-2 inhibitory activates of the synthesized compounds were tested using fluorometric COX-1 (Catalog Number: ab204698) and COX-2 (Catalog Number: ab283401) inhibitor screening kits (Abcam, United Kingdom). These assays are based on the fluorometric detection of Prostaglandin G2, generated by the COX enzyme. The experiment was conducted according to the manufacturer’s instructions. Each assay consists of a COX Assay Buffer, COX Probe (in DMSO), COX Cofactor (in DMSO), arachidonic acid and NaOH. The COX-1 inhibitor screening kit contains COX-1 ovine enzyme and COX-1 inhibitor SC560 (dissolved in DMSO), while the COX-2 inhibitor screening kit contains COX-2 human recombinant enzyme and COX-2 inhibitor Celecoxib (dissolved in DMSO). The tested compounds were dissolved in DMSO and further diluted five times with the COX Assay Buffer. The Inhibitor Control (IC) was prepared by adding 2 µL of COX-1/COX-2 inhibitor and 8 µL of COX Assay Buffer into assigned wells, while the Solvent Control (SC) was prepared by adding 2 µL of DMSO and 8 µL of COX Assay Buffer into assigned wells and the Sample (S) and Enzyme Control (EC) were prepared by adding 10 µL of diluted tested compounds or COX Assay Buffer into assigned wells. The Reaction Master Mix (COX Assay Buffer, COX Probe, Diluted COX Cofactor and COX-1/COX-2 Enzyme) was prepared according to instructions and 80 µL of the Reaction Master Mix was added into each well. Meanwhile, a diluted arachidonic acid/NaOH solution was prepared and 10 µL was added into each well using a multi-channel pipette to initiate all the reactions at the same time. […] The EC, SC, IC and tested compounds at all concentrations were analyzed in triplicates. Two points (T1 and T2) in the linear range of the plot were chosen and corresponding fluorescence values (RFU1 and RFU2) were obtained. The slope for all samples was calculated by dividing ΔRFU (RFU2-RFU1) by time Δt (T2−T1). The percentage of inhibition was calculated as follows: % Relative Inhibition=Slope of EC−Slope of S/Slope of EC∗100
as §1

Consider `COC(=O)C(Cc1c[nH]cn1)NC(=O)c1cc(C(C)(C)C)c(O)c(C(C)(C)C)c1` (centres unmarked) [Compound 4, 2-(3,5-di-tert-butyl-4-hydroxy-benzoylamino)-3-(1H-imidazol-4-yl)-propionic acid methyl ester], for which the IC50 at 5-LOX enzyme was 8.1 ± 2.12 µM; in test [1], more than 100 µM.

`CN(C)C(=O)Nc1ccccc1C(=O)O` [Compound 9, 2-(3,3-dimethyl-ureido)-benzoic acid]: the IC50 (on 5-LOX enzyme; in test [1]) was more than 100 µM throughout.

In the case of `C=CCNC(=O)c1cc(C(C)(C)C)c(O)c(C(C)(C)C)c1` [Compound 6, N-allyl-3,5-di-tert-butyl-4-hydroxy-benzamide], the 50% inhibitory concentration (IC50) at 5-LOX enzyme was 53.8 ± 11.9 µM; in test [1] it was 6.89 ± 0.83 µM.

As to `COc1ccc2cc(C(C)N(O)C(C)=O)ccc2c1` (centres unmarked) [Compound 12, N-hydroxy-N-[1-(6-methoxy-naphthalen-2-yl)-ethyl]-acetamide], the values for the IC50 (at 5-LOX enzyme; in test [1]) were 1.29 ± 0.1 µM and 83.4 ± 4.37 µM, respectively.

Take `CC(C)(C)c1cc(C=C2SC(=S)N(N)C2=O)cc(C(C)(C)C)c1O` [Compound 13, 3-amino-5-(3,5-di-tert-butyl-4-hydroxy-benzylidene)-2-thioxo-thiazolidin-4-one]: the IC50 at 5-LOX enzyme is 13.6 ± 3.54 µM; in test [1] it was more than 100 µM.

With `COC(=O)CNC(=O)c1cc(C(C)(C)C)c(O)c(C(C)(C)C)c1` [Compound 5, (3,5-di-tert-butyl-4-hydroxy-benzoylamino)-acetic acid methyl ester], the IC50 was 9.3 ± 1.87 µM at 5-LOX enzyme and 10.6 ± 0.8 µM in test [1].

Turning to `COc1ccc2c(c1)c(CNC(=O)NO)c(C)n2C(=O)c1ccc(Cl)cc1` [Compound 1, N’-hydroxy-N-[(1-(4-chlorobenzoyl)-5-methoxy-2-methyl-3-indolyl)methyl]urea], the IC50 amounted to 5.71 ± 0.15 µM at 5-LOX enzyme and 18.3 ± 2.17 µM in test [1].

Take `CC(=O)N(O)C(C)c1ccc(CC(C)C)cc1` (centres unmarked) [Compound 11]: the IC50 worked out at 1.04 ± 0.22 µM at 5-LOX enzyme and 36.2 ± 3.08 µM in test [1].

For the compound `CCOc1ccccc1NC(=O)Nc1ccc([N+](=O)[O-])cc1` [Compound 10, 1-(2-ethoxy-phenyl)-3-(4-nitro-phenyl)-urea], the IC50 on 5-LOX enzyme was 13 ± 2.67 µM; in test [1], more than 100 µM.

In the case of `O=C(NO)NCc1ccccc1Nc1c(Cl)cccc1Cl` [Compound 3, N’-hydroxy-N-[(2-(2,6-dichloroanilino)phenyl)methyl]urea], the 50% inhibitory concentration (IC50) turned out to be 1.73 ± 0.64 µM at 5-LOX enzyme and 5.26 ± 0.34 µM in test [1].

As for `CC(NC(=O)NO)c1ccc(-c2ccccc2)c(F)c1` (centres unmarked) [Compound 2], the IC50 is 1.62 ± 0.67 µM at 5-LOX enzyme and 6.72 ± 0.79 µM in test [1].

For the compound `CCOc1ccccc1NC(=O)N(C)C` [Compound 8, 3-(2-ethoxy-phenyl)-1,1-dimethyl-urea], the IC50 on 5-LOX enzyme is 14.5 ± 3.62 µM; in test [1] it was more than 100 µM.

Regarding `C#CCNC(=O)c1cc(C(C)(C)C)c(O)c(C(C)(C)C)c1` [Compound 7, 3,5-di-tert-butyl-4-hydroxy-N-prop-2-ynyl-benzamide], the half-maximal inhibitory concentration (IC50) was 12.6 ± 3.36 µM on 5-LOX enzyme and more than 100 µM in test [1].

Usually IC50 stands for the concentration at which inhibition is half-maximal.
